Test results reported in ChEMBL document CHEMBL5260801, “Structure Based Design of Non-Natural Peptidic Macrocyclic Mcl-1 Inhibitors” (ACS Med Chem Lett, 2017).

Columns and labels:
[1] = target: T1, Induced myeloid leukemia cell differentiation protein Mcl-1 (Homo sapiens, UniProt Q07820); assay: Binding affinity to N-terminal his6-tagged human recombinant Mcl-1 expressed in Escherichia coli assessed as binding constant (Kon) by SPR analysis
[2] = target: Induced myeloid leukemia cell differentiation protein Mcl-1/Bcl-2-like protein 11 (Homo sapiens, UniProt Q07820); assay: Inhibition of N-terminal GST-tagged human recombinant Mcl-1 expressed in Escherichia coli /human Bim measured for 60 mins by TR-FRET based LanthaScreen Eu-Kinase binding assay
Induced myeloid leukemia cell differentiation protein Mcl-1/Bcl-2-like protein 11, sequence (Q07820 whole entry): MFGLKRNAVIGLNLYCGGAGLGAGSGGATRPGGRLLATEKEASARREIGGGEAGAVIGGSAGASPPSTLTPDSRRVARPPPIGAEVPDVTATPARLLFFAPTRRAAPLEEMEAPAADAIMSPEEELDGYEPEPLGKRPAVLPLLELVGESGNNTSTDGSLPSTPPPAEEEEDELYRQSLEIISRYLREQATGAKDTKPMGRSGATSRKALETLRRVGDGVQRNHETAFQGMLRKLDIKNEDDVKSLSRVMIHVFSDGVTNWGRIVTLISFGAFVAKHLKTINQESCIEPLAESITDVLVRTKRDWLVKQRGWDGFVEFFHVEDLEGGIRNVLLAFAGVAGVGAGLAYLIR
Induced myeloid leukemia cell differentiation protein Mcl-1/Bcl-2-like protein 11, sequence (O43521 whole entry, further chain): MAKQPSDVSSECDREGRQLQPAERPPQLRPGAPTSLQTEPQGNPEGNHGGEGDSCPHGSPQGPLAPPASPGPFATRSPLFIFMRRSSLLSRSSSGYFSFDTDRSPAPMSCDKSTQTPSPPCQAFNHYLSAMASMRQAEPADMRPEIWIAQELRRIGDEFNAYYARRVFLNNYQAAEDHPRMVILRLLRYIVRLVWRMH

[3] = target: T1, Induced myeloid leukemia cell differentiation protein Mcl-1; assay: Binding affinity to N-terminal his6-tagged human recombinant Mcl-1 expressed in Escherichia coli assessed as dissociation constant by SPR analysis
[4] = target: T1, Induced myeloid leukemia cell differentiation protein Mcl-1; assay: Binding affinity to N-terminal his6-tagged human recombinant Mcl-1 expressed in Escherichia coli assessed as binding constant (Koff) by SPR analysis
BCL2/BCL2L11 = BCL2/BCL2L11 (Homo sapiens, UniProt P10415); assay: Inhibition of his-tagged human recombinant Bcl-2 expressed in Escherichia coli /human Bim measured for 60 mins by TR-FRET based LanthaScreen Eu-Kinase binding assay
BCL2/BCL2L11, sequence (P10415 whole entry): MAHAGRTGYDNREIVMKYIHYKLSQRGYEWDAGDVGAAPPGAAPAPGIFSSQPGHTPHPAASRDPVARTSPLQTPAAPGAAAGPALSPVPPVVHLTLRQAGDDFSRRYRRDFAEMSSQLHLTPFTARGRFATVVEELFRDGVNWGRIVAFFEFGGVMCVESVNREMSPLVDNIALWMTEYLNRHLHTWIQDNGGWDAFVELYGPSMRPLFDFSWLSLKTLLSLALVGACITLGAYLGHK
BCL2/BCL2L11, sequence (O43521 whole entry, further chain): as the sequence (O43521 whole entry, further chain) above

MV4-11 = assay: Induction of apoptosis in human MV4-11 cells assessed as increase in caspase 3/7 activity measured after 6 hrs by Caspase-Glo 3/7 reagent based microplate reader analysis; type: functional, cell-based; conditions: MV4-11, 6 h
Bcl-xL/BAK = Bcl-xL/BAK (Homo sapiens, UniProt Q07817); assay: Inhibition of N-terminal GST-tagged Bcl-xL (1 to 209 residues) expressed in Escherichia coli /human Bak measured for 60 mins by TR-FRET based LanthaScreen Eu-Kinase binding assay
Bcl-xL/BAK, sequence (Q07817 whole entry, the tested form may be a part): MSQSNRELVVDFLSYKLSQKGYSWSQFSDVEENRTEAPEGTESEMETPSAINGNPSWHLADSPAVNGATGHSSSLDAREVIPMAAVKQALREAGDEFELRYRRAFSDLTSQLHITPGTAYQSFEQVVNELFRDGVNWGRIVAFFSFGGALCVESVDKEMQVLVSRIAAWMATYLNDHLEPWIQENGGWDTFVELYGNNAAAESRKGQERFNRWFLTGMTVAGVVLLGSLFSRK
Bcl-xL/BAK, sequence (Q16611 whole entry, further chain, the tested form may be a part): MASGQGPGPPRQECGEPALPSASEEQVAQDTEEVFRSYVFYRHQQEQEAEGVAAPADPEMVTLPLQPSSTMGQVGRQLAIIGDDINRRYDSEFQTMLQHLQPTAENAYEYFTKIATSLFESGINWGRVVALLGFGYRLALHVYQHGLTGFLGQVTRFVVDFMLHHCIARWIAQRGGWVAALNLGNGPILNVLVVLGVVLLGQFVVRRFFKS

T1 sequence (Q07820 whole entry): as the sequence (Q07820 whole entry) above

| SMILES | K [1] | IC50 [2] | Kd [3] | K [4] | IC50 (BCL2/BCL2L11) | EC50 (MV4-11) | IC50 (Bcl-xL/BAK) |
| --- | --- | --- | --- | --- | --- | --- | --- |
| CN1CCCN[C@@H](Cc2ccc(Cl)cc2)CC(=O)N[C@H]2CCc3ccccc3N(CC(=O)N[C@H](Cc3ccc(Cl)c(Cl)c3)CC1=O)C2=O | 7.9 10^5/M.s | 155 nM | 370 nM | 0.212 s⁻¹ | 1000 nM | – | – |
| CN1CCCN[C@@H](Cc2ccc(S(C)(=O)=O)cc2)CC(=O)N[C@H]2CCc3ccccc3N(CC(=O)N[C@H](Cc3ccc(Cl)c(/C=C/c4ccccc4)c3)CC1=O)C2=O | – | 375 nM | 1200 nM | – | > 1000 nM | – | – |
| CN1CCCN[C@@H](Cc2ccc(S(C)(=O)=O)cc2)CC(=O)N[C@H]2CCc3ccccc3N(CC(=O)N[C@H](Cc3ccc(Cl)c(-c4cc5ccccc5o4)c3)CC1=O)C2=O | 9.5 10^5/M.s | 116 nM | 470 nM | 0.336 s⁻¹ | 1000 nM | – | – |
| CNC(=O)C[C@@H](Cc1ccc(Cl)c(CCc2ccccc2)c1)NC(=O)CN1C(=O)[C@@H](NC(=O)C[C@@H](N)Cc2ccc(Cl)cc2)CCc2ccccc21 | – | 193 nM | – | – | 1000 nM | – | – |
| CN1CCCN[C@@H](Cc2ccc([S+](C)[O-])cc2)CC(=O)N[C@H]2CCc3ccccc3N(CC(=O)N[C@H](Cc3ccc(Cl)c(Cl)c3)CC1=O)C2=O (stereo not given in full) | – | 742 nM | 770 nM | – | 1000 nM | – | – |
| CCN[C@H](CC(=O)N[C@H]1CCc2ccccc2N(CC(=O)N[C@@H](CC(=O)NC)Cc2ccc(Cl)c(Cl)c2)C1=O)Cc1ccc(Cl)cc1 | – | 2100 nM | – | – | 1000 nM | – | – |
| CN1CCCN[C@@H](Cc2ccc(Cl)cc2)CC(=O)N[C@H]2CCc3ccccc3N(CC(=O)N[C@H](Cc3ccc(Cl)c(CCc4ccccc4)c3)CC1=O)C2=O | 3.7 10^5/M.s | 45 nM | 340 nM | 0.073 s⁻¹ | 1000 nM | – | – |
| CNC(=O)C[C@@H](Cc1ccc(Cl)c(Cc2ccccc2)c1)NC(=O)CN1C(=O)[C@@H](NC(=O)C[C@@H](N)Cc2ccc(Cl)cc2)CCc2ccccc21 | – | 9210 nM | – | – | 1000 nM | – | – |
| CNC(=O)C[C@@H](Cc1ccc(Cl)c(Cl)c1)NC(=O)CN1C(=O)[C@@H](NC(=O)C[C@@H](N)Cc2ccc(Cl)cc2)CCc2ccccc21 | – | 1990 nM | – | – | 1000 nM | – | – |
| C[C@H]1CCN(C)C(=O)C[C@@H](Cc2ccc(Cl)c(Cl)c2)NC(=O)CN2C(=O)[C@H](CCc3ccccc32)NC(=O)C[C@H](Cc2ccc(Cl)cc2)N1 | – | 48 nM | 120 nM | – | 1000 nM | – | – |
| CN1CCCN[C@@H](Cc2ccc(Cl)cc2)CC(=O)N[C@H]2CCc3ccccc3N(CC(=O)N[C@H](Cc3ccc(Cl)c(-c4cc5ccccc5o4)c3)CC1=O)C2=O | 1.6 10^5/M.s | 1050 nM | 3600 nM | 0.314 s⁻¹ | > 1000 nM | – | – |
| CN1CCCN[C@@H](Cc2ccc(S(C)(=O)=O)cc2)CC(=O)N[C@H]2CCc3ccccc3N(CC(=O)N[C@H](Cc3ccc(Cl)c(Cl)c3)CC1=O)C2=O | – | 116 nM | 100 nM | – | 1000 nM | – | – |
| C[C@@H]1CCN(C)C(=O)C[C@@H](Cc2ccc(Cl)c(Cl)c2)NC(=O)CN2C(=O)[C@H](CCc3ccccc32)NC(=O)C[C@H](Cc2ccc(Cl)cc2)N1 | – | 739 nM | 3540 nM | – | 1000 nM | – | – |
| CN1CCCCN[C@@H](Cc2ccc(Cl)cc2)CC(=O)N[C@H]2CCc3ccccc3N(CC(=O)N[C@H](Cc3ccc(Cl)c(Cl)c3)CC1=O)C2=O | 2.9 10^5/M.s | 122 nM | 290 nM | 0.082 s⁻¹ | 1000 nM | – | – |
| CNC(=O)C[C@@H](Cc1ccc(Cl)c(CCc2ccccc2)c1)NC(=O)CN1C(=O)[C@@H](NC(=O)C[C@@H](N)Cc2ccc(S(C)(=O)=O)cc2)CCc2ccccc21 | – | 133 nM | – | – | 1000 nM | – | – |
| CN1CCCN[C@@H](Cc2ccc(S(C)(=O)=O)cc2)CC(=O)N[C@H]2CCc3ccccc3N(CC(=O)N[C@H](Cc3ccc(Cl)c(-c4ccc5ccccc5c4)c3)CC1=O)C2=O | 6.6 10^5/M.s | 112 nM | 290 nM | 0.213 s⁻¹ | 1000 nM | – | – |
| CN1CCCN[C@@H](Cc2ccc(S(N)(=O)=O)cc2)CC(=O)N[C@H]2CCc3ccccc3N(CC(=O)N[C@H](Cc3ccc(Cl)c(Cl)c3)CC1=O)C2=O | – | 558 nM | 720 nM | – | 1000 nM | – | – |
| CNC(=O)C[C@@H](Cc1cccc(Cl)c1)NC(=O)CN1C(=O)[C@@H](NC(=O)C[C@@H](N)Cc2ccc(Cl)cc2)CCc2ccccc21 | – | 57300 nM | – | – | > 1000 nM | – | – |
| CNC(=O)C[C@@H](Cc1ccc(Cl)cc1)NC(=O)CN1C(=O)[C@@H](NC(=O)C[C@@H](N)Cc2ccc(Cl)cc2)CCc2ccccc21 | – | 12500 nM | – | – | 1000 nM | – | – |
| CN1CCCN[C@@H](Cc2ccc(S(C)(=O)=O)cc2)CC(=O)N[C@H]2CCc3ccccc3N(CC(=O)N[C@H](Cc3ccc(Cl)c(CCc4ccccc4)c3)CC1=O)C2=O | 33 10^5/M.s | < 3 nM | 20 nM | 0.066 s⁻¹ | 5500 nM | 3.78 µM | > 99 µM |

Second part, the compound after the results:

| K [1] | IC50 [2] | Kd [3] | K [4] | IC50 (BCL2/BCL2L11) | EC50 (MV4-11) | IC50 (Bcl-xL/BAK) | SMILES |
| --- | --- | --- | --- | --- | --- | --- | --- |
| 0.53 10^5/M.s | 5210 nM | 4480 nM | 0.158 s⁻¹ | > 1000 nM | – | – | O=C1C[C@@H](Cc2ccc(Cl)c(Cl)c2)NC(=O)CN2C(=O)[C@H](CCc3ccccc32)NC(=O)C[C@H](Cc2ccc(Cl)cc2)NCCCN1 |
| – | 277 nM | 530 nM | – | 1000 nM | – | – | CN1CCCCCN[C@@H](Cc2ccc(Cl)cc2)CC(=O)N[C@H]2CCc3ccccc3N(CC(=O)N[C@H](Cc3ccc(Cl)c(Cl)c3)CC1=O)C2=O |
| – | 2230 nM | > 10000 nM | – | 1000 nM | – | – | CN1CCCN[C@@H](Cc2ccc(Cl)cc2)CC(=O)N[C@H]2CCc3ccccc3N(CC(=O)N[C@H](Cc3ccc(Cl)c(/C=C/c4ccccc4)c3)CC1=O)C2=O |
| – | 19500 nM | – | – | 1000 nM | – | – | CNC(=O)C[C@@H](Cc1ccc(Cl)cc1)NC(=O)CN1C(=O)[C@@H](NC(=O)C[C@@H](N)Cc2ccccc2)CCc2ccccc21 |
| 10.2 10^5/M.s | 510 nM | 420 nM | 0.476 s⁻¹ | 1000 nM | – | – | CN1CCCN[C@@H](Cc2ccc(S(C)(=N)=O)cc2)CC(=O)N[C@H]2CCc3ccccc3N(CC(=O)N[C@H](Cc3ccc(Cl)c(Cl)c3)CC1=O)C2=O (stereo not given in full) |
| – | 47 nM | – | – | 1000 nM | – | – | CN1CCCN[C@@H](Cc2ccc(S(C)(=O)=O)cc2)CC(=O)N[C@H]2CCc3ccccc3N(CC(=O)N[C@H](Cc3ccc(Cl)c(C#Cc4ccccc4)c3)CC1=O)C2=O |
| – | 2250 nM | – | – | 1000 nM | – | – | CN(C)C(=O)C[C@@H](Cc1ccc(Cl)c(Cl)c1)NC(=O)CN1C(=O)[C@@H](NC(=O)C[C@@H](N)Cc2ccc(Cl)cc2)CCc2ccccc21 |
| – | 1490 nM | – | – | 1000 nM | – | – | CNC(=O)C[C@@H](Cc1ccc(Cl)c(Cl)c1)NC(=O)CN1C(=O)[C@@H](NC(=O)C[C@@H](N)Cc2ccc(Br)cc2)CCc2ccccc21 |
| – | 1930 nM | – | – | > 1000 nM | – | – | CNC(=O)C[C@@H](Cc1ccc(Cl)c(-c2ccc(Cl)c(C)c2)c1)NC(=O)CN1C(=O)[C@@H](NC(=O)C[C@@H](N)Cc2ccc(Cl)cc2)CCc2ccccc21 |
